Source: the NIST ThermoML archive (doi:10.1021/acs.jced.5b00326)
“And” between values parts separate entries of the source, which are not always exact repeats. Equal entries are not always repeated. Numbers after ± are expanded uncertainties.

Assay: mn = molality of the nth substance listed, in mol/kg
Settings: Liquid; for speed of sound: 100 kPa, Sing-around technique in a fixed-path interferometer; for mass density: 101 kPa, Vibrating tube method

CCCCCCn1cc[n+](C)c1.[Cl-] [1-hexyl-3-methylimidazolium chloride] + O
speed of sound, Frequency=3 MHz
Settings | 288.15 K | 293.15 K | 298.15 K | 303.15 K | 308.15 K
m1 = 0.01 | 1474.3 ± 20 m/s and 1468.6 ± 20 m/s | 1484.6 ± 20 m/s and 1490.1 ± 20 m/s | 1498.7 ± 20 m/s and 1505 ± 20 m/s | 1511 ± 20 m/s and 1517 ± 20 m/s | 1521.3 ± 20 m/s and 1525.1 ± 20 m/s
m1 = 0.03 | 1474.3 ± 20 m/s | 1490.1 ± 20 m/s | 1505 ± 20 m/s | 1517 ± 20 m/s | 1525.1 ± 20 m/s

mass density [kg/m3]
Settings | 288.15 K | 293.15 K | 298.15 K | 303.15 K | 308.15 K
m1 = 0.01 | 999.911 ± 14 | 999.007 ± 14 | 997.841 ± 14 | 996.436 ± 14 | 994.818 ± 14
m1 = 0.03 | 1000.17 ± 14 | 999.246 ± 14 | 998.052 ± 14 | 996.623 ± 14 | 995.004 ± 14

O=P([O-])([O-])O.[K+].[K+] [dipotassium hydrogen phosphate] + O
Settings | mass density, 288.15 K [kg/m3] | mass density, 293.15 K [kg/m3] | mass density, 298.15 K [kg/m3] | mass density, 303.15 K [kg/m3] | mass density, 308.15 K [kg/m3] | speed of sound, 288.15 K [m/s] | speed of sound, 293.15 K [m/s] | speed of sound, 298.15 K [m/s] | speed of sound, 303.15 K [m/s] | speed of sound, 308.15 K [m/s]
m1 = 0.01907 | 1001.68 ± 14 | 1000.76 ± 14 | 999.574 ± 14 | 998.164 ± 14 | 996.53 ± 14 | 1466.9 ± 20 | 1484.8 ± 20 | 1499.7 ± 20 | 1514.5 ± 20 | 1522.3 ± 20
m1 = 0.04894 | 1005.7 ± 14 | 1004.75 ± 14 | 1003.53 ± 14 | 1002.09 ± 14 | 1000.43 ± 14 | 1471.1 ± 20 | 1489 ± 20 | 1503.9 ± 20 | 1518.7 ± 20 | 1526.5 ± 20
m1 = 0.06838 | 1008.31 ± 14 | 1007.35 ± 14 | 1006.11 ± 14 | 1004.65 ± 14 | 1002.97 ± 14 | 1473.8 ± 20 | 1491.8 ± 20 | 1506.6 ± 20 | 1521.5 ± 20 | 1529.3 ± 20
m1 = 0.09992 | 1012.56 ± 14 | 1011.57 ± 14 | 1010.29 ± 14 | 1008.79 ± 14 | 1007.09 ± 14 | 1478.3 ± 20 | 1496.2 ± 20 | 1511.1 ± 20 | 1525.9 ± 20 | 1533.7 ± 20
m1 = 0.1992 | 1025.92 ± 14 | 1024.84 ± 14 | 1023.44 ± 14 | 1021.85 ± 14 | 1020.05 ± 14 | 1492.2 ± 20 | 1510.2 ± 20 | 1525 ± 20 | 1539.9 ± 20 | 1547.7 ± 20
m1 = 0.2993 | 1039.39 ± 14 | 1038.23 ± 14 | 1036.7 ± 14 | 1035.01 ± 14 | 1033.13 ± 14 | 1506.3 ± 20 | 1524.2 ± 20 | 1539.1 ± 20 | 1554 ± 20 | 1561.8 ± 20
m1 = 0.3965 | 1052.47 ± 14 | 1051.22 ± 14 | 1049.58 ± 14 | 1047.79 ± 14 | 1045.82 ± 14 | 1520 ± 20 | 1537.9 ± 20 | 1552.8 ± 20 | 1567.6 ± 20 | 1575.4 ± 20
m1 = 0.4942 | 1065.63 ± 14 | 1064.29 ± 14 | 1062.53 ± 14 | 1060.65 ± 14 | 1058.58 ± 14 | 1533.8 ± 20 | 1551.7 ± 20 | 1566.5 ± 20 | 1581.4 ± 20 | 1589.2 ± 20
m1 = 0.6 | 1079.87 ± 14 | 1078.43 ± 14 | 1076.55 ± 14 | 1074.56 ± 14 | 1072.4 ± 14 | 1548.6 ± 20 | 1566.6 ± 20 | 1581.4 ± 20 | 1596.3 ± 20 | 1604.1 ± 20
m1 = 0.6969 | 1092.92 ± 14 | 1091.39 ± 14 | 1089.39 ± 14 | 1087.3 ± 14 | 1085.06 ± 14 | 1562.3 ± 20 | 1580.2 ± 20 | 1595.1 ± 20 | 1609.9 ± 20 | 1617.7 ± 20
m1 = 0.7929 | 1105.83 ± 14 | 1104.22 ± 14 | 1102.11 ± 14 | 1099.92 ± 14 | 1097.59 ± 14 | 1575.8 ± 20 | 1593.7 ± 20 | 1608.6 ± 20 | 1623.4 ± 20 | 1631.2 ± 20
m1 = 0.8916 | 1119.12 ± 14 | 1117.41 ± 14 | 1115.18 ± 14 | 1112.9 ± 14 | 1110.48 ± 14 | 1589.7 ± 20 | 1607.6 ± 20 | 1622.5 ± 20 | 1637.3 ± 20 | 1645.1 ± 20
m1 = 0.9907 | 1132.46 ± 14 | 1130.67 ± 14 | 1128.32 ± 14 | 1125.93 ± 14 | 1123.43 ± 14 | 1603.6 ± 20 | 1621.5 ± 20 | 1636.4 ± 20 | 1651.2 ± 20 | 1659 ± 20

O=P([O-])([O-])O.[Na+].[Na+] [disodium hydrogen phosphate] + O
speed of sound [m/s], Frequency=3 MHz
Settings | 288.15 K | 293.15 K | 298.15 K | 303.15 K | 308.15 K
m1 = 0.02076 | 1467.8 ± 20 | 1485.6 ± 20 | 1500.3 ± 20 | 1515 ± 20 | 1522.8 ± 20
m1 = 0.04991 | 1472.7 ± 20 | 1490.4 ± 20 | 1505 ± 20 | 1519.3 ± 20 | 1527.1 ± 20
m1 = 0.07047 | 1476.2 ± 20 | 1493.8 ± 20 | 1508.3 ± 20 | 1522.4 ± 20 | 1530.2 ± 20
m1 = 0.1014 | 1481.5 ± 20 | 1498.9 ± 20 | 1513.2 ± 20 | 1527.1 ± 20 | 1534.9 ± 20
m1 = 0.1983 | 1497.9 ± 20 | 1514.9 ± 20 | 1528.8 ± 20 | 1541.6 ± 20 | 1549.4 ± 20
m1 = 0.2992 | 1515.1 ± 20 | 1531.5 ± 20 | 1544.9 ± 20 | 1556.8 ± 20 | 1564.5 ± 20
m1 = 0.394 | 1531.2 ± 20 | 1547.2 ± 20 | 1560.1 ± 20 | 1571 ± 20 | 1578.8 ± 20
m1 = 0.4957 | 1548.5 ± 20 | 1564 ± 20 | 1576.4 ± 20 | 1586.2 ± 20 | 1594 ± 20
m1 = 0.5971 | 1565.8 ± 20 | 1580.7 ± 20 | 1592.6 ± 20 | 1601.5 ± 20 | 1609.3 ± 20
m1 = 0.6947 | 1582.4 ± 20 | 1596.8 ± 20 | 1608.2 ± 20 | 1616.1 ± 20 | 1623.9 ± 20
m1 = 0.7942 | 1599.3 ± 20 | 1613.3 ± 20 | 1624.2 ± 20 | 1631 ± 20 | 1638.8 ± 20
m1 = 0.876 | 1613.2 ± 20 | 1626.8 ± 20 | 1637.3 ± 20 | 1643.3 ± 20 | 1651.1 ± 20
m1 = 0.976 | 1630.2 ± 20 | 1643.3 ± 20 | 1653.3 ± 20 | 1658.3 ± 20 | 1666.1 ± 20

mass density [kg/m3]
Settings | 288.15 K | 293.15 K | 298.15 K | 303.15 K | 308.15 K
m1 = 0.02076 | 1001.71 ± 14 | 1000.78 ± 14 | 999.59 ± 14 | 998.178 ± 14 | 996.536 ± 14
m1 = 0.04991 | 1005.35 ± 14 | 1004.39 ± 14 | 1003.16 ± 14 | 1001.72 ± 14 | 1000.04 ± 14
m1 = 0.07047 | 1007.92 ± 14 | 1006.93 ± 14 | 1005.68 ± 14 | 1004.22 ± 14 | 1002.52 ± 14
m1 = 0.1014 | 1011.78 ± 14 | 1010.76 ± 14 | 1009.47 ± 14 | 1007.97 ± 14 | 1006.24 ± 14
m1 = 0.1983 | 1023.89 ± 14 | 1022.75 ± 14 | 1021.33 ± 14 | 1019.74 ± 14 | 1017.89 ± 14
m1 = 0.2992 | 1036.51 ± 14 | 1035.25 ± 14 | 1033.7 ± 14 | 1032.01 ± 14 | 1030.03 ± 14
m1 = 0.394 | 1048.36 ± 14 | 1046.99 ± 14 | 1045.31 ± 14 | 1043.53 ± 14 | 1041.44 ± 14
m1 = 0.4957 | 1061.07 ± 14 | 1059.58 ± 14 | 1057.77 ± 14 | 1055.88 ± 14 | 1053.67 ± 14
m1 = 0.5971 | 1073.75 ± 14 | 1072.14 ± 14 | 1070.2 ± 14 | 1068.21 ± 14 | 1065.88 ± 14
m1 = 0.6947 | 1085.95 ± 14 | 1084.21 ± 14 | 1082.15 ± 14 | 1080.06 ± 14 | 1077.61 ± 14
m1 = 0.7942 | 1098.39 ± 14 | 1096.54 ± 14 | 1094.34 ± 14 | 1092.15 ± 14 | 1089.58 ± 14
m1 = 0.876 | 1108.62 ± 14 | 1106.66 ± 14 | 1104.36 ± 14 | 1102.1 ± 14 | 1099.43 ± 14
m1 = 0.976 | 1121.11 ± 14 | 1119.04 ± 14 | 1116.61 ± 14 | 1114.24 ± 14 | 1111.45 ± 14
